Assay results as given in patent publication US20090156551A1, “NOVEL COMPOSITION” (priority 2007, published 2009).
Like-named read-outs stand apart in the source and are kept apart here.

Legend:
[1] = system: Inflammatory mediator NO; test: Inhibition of nitric oxide synthesis in LPS-stimulated RAW264.7 macrophages (Griess reaction); format: cell-based, murine; conditions: for IC50: Mus musculus; for anti-inflammatory activity (in words): NO inhibition
Protocol: The anti-inflammatory effects were determined in cellular assays by measuring the inhibition of the synthesis of nitric oxide and/or pro-inflammatory prostaglandins (PGE2). PGE2 plays a critical role in the inflammation process, while nitric oxide (NO) is a hallmark of inflammation in various chronic inflammatory diseases including various forms of arthritis, gastro-intestinal diseases and metabolic syndrome X. The effects on the inflammatory response were tested in cellular assays using a murine macrophage cell line, RAW264.7. The cells were purchased from ATCC (Manassas, Va., USA) and cultured in DMEM containing streptomycin/penicillin, non-essential amino acids and 10% fetal calf serum (FCS). In order to test a large range of concentration of MA and HO as well as mixtures thereof, cells (˜50'000/well) were seeded into flat-bottomed microtiter plates and cultured for one day. Cells were then starved in complete medium containing 0.25% FCS (D-025). After overnight culture, medium was removed and replaced by 100 μL of D-025 containing the test compounds at twice the final concentration. Subsequently, 100 μL of D-025 containing 2 μg/ml LPS was added (i.e. final LPS concentration of 1 μg/ml) and the cells cultured for 24 hours. Substances were usually tested in a concentration range from 0.2 to 50 μM in two-fold dilution steps. All treatments were done in duplicates and several experimental series were done for each treatment. Concentrations of nitrite which was rapidly formed from nitric oxide released by cells were determined by the Griess reaction using sodium nitrite as standard. Briefly, 50 μl of supernatant was mixed with Griess reagent 1 (25 μL) and Griess reagent 2 (25 μL), centrifuged and the optical density at 540 nm determined. PGE2 secreted into the cell culture medium was determined by EIA obtained from Cayman Chemicals (Ann Harbor, Wis., USA) and used according to the manufacturer's instructions. All determinations were done in duplicates and at various dilutions of the culture supernatant. IC50 values for LPS-stimulated cells were calculated using a […] least-square fitting equation [y=A+((B−A)/(1+((C−x)̂D))] for best-fit curves (Excel fit software program).
In order to determine the synergistic concentration range of MA to HO, various mixtures thereof were tested for their anti-inflammatory by measuring the inhibition of the synthesis of nitric oxide (NO) as outlined above.
The synergistic effect of a combination of a mixture of MA/HO (1:3 w/w) with glucosamine sulfate (ratio MA/HO (1:3 w/w) to glucosamine sulfate: 50 μmol/L to 50 μmol/L) or chondroitin sulfate (ratio MA/HO (1:3 w/w) to chondroitin sulfate: 13.3 mg/L (i.e. 50 μmol/L) to 500 mg/L) on the inhibition of the inflammatory mediator nitric oxide (NO) has been evaluated based on the method published by Chou and Talalay (A simple generalized equation for the analysis of multiple inhibitions of Michealis-Menten kinetic systems. J. Biol. Chem. 1977. 252: 6438-6442).

[2] = system: Collagen I; test: Gene expression in normal human chondrocytes, RT-PCR; format: cell-based; conditions: for Expression level (%) Collagen I: at 12.5 μmol/L, 4 hours, % of unstimulated cells (100%)
[3] = system: Aggrecan; test: as above; format: cell-based; conditions: 4 hrs
Protocol: (§1) The effect of MA and HO, mixtures thereof as well as combinations with glucosamine sulfate and chondroitin sulfate on the expression of human aggrecan, collagen I, collagen II, or chondrocyte transcription factors (SOX-6, -9) was measured in vitro in normal human chondrocytes (derived from knee) (CC-2550; Cambrex, respectively). A control experiment without the compounds was done concomitantly to compare the expression of these genes (percentage expression of gene in controls was set to 100%).

[4] = system: TIMP-1; test: as above; format: cell-based; conditions: for Expression level (%) TIMP-1: at 12.5 μmol/L, 4 hours, % of unstimulated cells (100%)
Protocol: [Worded in the source for another target; this target is reported under the same test.] as §1

[5] = system: Collagen II; test: as above; format: cell-based; conditions: 4 hrs; 50 μmol/L
[6] = system: MMP-9; test: as above; format: cell-based; conditions: stim. 4 hrs; 50 μmol/L
[7] = system: ADAMTS-4; test: as above; format: cell-based; conditions: unstim. 4 d; 50 μmol/L
[8] = system: Inflammatory mediator PGE2; test: Inhibition of PGE2 synthesis in LPS-stimulated RAW264.7 macrophages (EIA); format: cell-based, murine; conditions: Mus musculus, read-out: IC50 Observed, inflammatory mediator PGE2
Protocol: The anti-inflammatory effects were determined in cellular assays by measuring the inhibition of the synthesis of nitric oxide and/or pro-inflammatory prostaglandins (PGE2). […] The cells were purchased from ATCC (Manassas, Va., USA) and cultured in DMEM containing streptomycin/penicillin, non-essential amino acids and 10% fetal calf serum (FCS). […] Cells were then starved in complete medium containing 0.25% FCS (D-025). After overnight culture, medium was removed and replaced by 100 μL of D-025 containing the test compounds at twice the final concentration. Subsequently, 100 μL of D-025 containing 2 μg/ml LPS was added (i.e. final LPS concentration of 1 μg/ml) and the cells cultured for 24 hours. […] Concentrations of nitrite which was rapidly formed from nitric oxide released by cells were determined by the Griess reaction using sodium nitrite as standard. Briefly, 50 μl of supernatant was mixed with Griess reagent 1 (25 μL) and Griess reagent 2 (25 μL), centrifuged and the optical density at 540 nm determined. PGE2 secreted into the cell culture medium was determined by EIA obtained from Cayman Chemicals (Ann Harbor, Wis., USA) and used according to the manufacturer's instructions. […] IC50 values for LPS-stimulated cells were calculated using a two-parametric least-square fitting equation [y=A+((B−A)/(1+((C−x)̂D))] for best-fit curves (Excel fit software program).

[9] = system: I-κBalpha; test: Inflammatory gene expression in RAW 264.7 cells, quantitative RT-PCR; format: cell-based, murine; conditions: at 12.5 μmol/L, 4 hours; relative to LPS-stimulated cells (100%)
Description: (§2) Inflammatory responses are orchestrated by the transient activation of a variety of genes. Their regulation is tightly controlled via signaling pathways and eventually proteins that control the expression of genes such as transcription factors. Consequently, the effect of the compounds (each of them and various ratios of mixtures) has also been evaluated at the level of the expression of genes that are involved in the inflammatory response. These comprise genes of the prostaglandin synthesis pathway (e.g. COX-2), interleukins (e.g. IL1-α, IL-1β, IL-6), cytokines (e.g. TNF-α), inducible nitric oxide synthase (iNOS) and chemokines. RAW 264.7 cells were stimulated in the presence of different concentrations of substances. After 4 hours, RNA was extracted and the expression of genes determined by quantitative RT-PCR as described by Richard, […]. and […]. in Mol Nutr Food Res 2005. 49: 431-442. In table 3, the effect of MA and HO alone as well as of mixtures thereof in the indicated molar ratios on the expression of inflammatory genes or on anti-inflammatory transcription factors (I-κBα) is shown. The level of mRNA was determined by RT-PCR and expressed relative to the level observed in LPS-stimulated cells (i.e. without compounds).

[10] = system: IL-10; test: as above; format: cell-based, murine; conditions: at 12.5 μmol/L, 4 hours; relative to LPS-stimulated cells (100%)
Description: as §2

[11] = system: IL-1alpha; test: as above; format: cell-based, murine; conditions: at 12.5 μmol/L, 4 hours; relative to LPS-stimulated cells (100%)
Description: as §2

[12] = system: TNF-alpha; test: as above; format: cell-based, murine; conditions: at 12.5 μmol/L, 4 hours; relative to LPS-stimulated cells (100%)
Description: as §2

[13] = system: SOX-6; test: Gene expression in normal human chondrocytes, RT-PCR; format: cell-based; conditions: at 12.5 μmol/L, 4 hours; % of unstimulated cells (100%)
[14] = system: SOX-9; test: as above; format: cell-based; conditions: for Expression level (%) SOX-9: at 12.5 μmol/L, 4 hours, % of unstimulated cells (100%)
Protocol: as §1

[15] = system: IL-RI Receptor for Il-1; test: as above; format: cell-based; conditions: at 12.5 μmol/L, 4 hours; control set at 100%
[16] = system: normal human chondrocytes; test: Effects on chondrocytes (cartilage build-up), overall gene expression; format: cell-based; conditions: 12.5 μmol/L, un- (non-IL1 beta-) stimulated cells
Protocol: as §1
In table 2.1 the effect of MA and HO alone as well as of mixtures thereof in the indicated molar ratios on the expression of genes that are involved in cartilage build-up is shown.

[17] = system: ADAMTS-5; test: Gene expression in normal human chondrocytes, RT-PCR; format: cell-based; conditions: stim. 4 hrs; 500 mg/L; % of IL1β-treated cells
Protocol: [Worded in the source for another target; this target is reported under the same test.] as §1

[18] = system: MMP-2; test: as above; format: cell-based; conditions: 4 d; 500 mg/L; % of IL1β-treated cells
[19] = LPS 1 μg/ml, 24 hours, RAW264.7, read-out: IC50 Observed, inflammatory mediator NO

For `N[C@H]1C(O)O[C@H](CO)[C@@H](O)[C@@H]1O.O=S(=O)(O)O` (stereo partly drawn) [Glucosamine sulfate, glucosamine sulfate], the IC50 ([1]; single substance, LPS-stimulated RAW264.7, read-out: IC50 Nitric Oxide) was greater than 100 µM, the “anti-inflammatory activity (in words)” value ([1]; single substance) was “marginal anti-inflammatory” and the “level of gene expression Collagen 1” value ([2]; 4 hrs, 50 μmol/L) was 121%. The “level of gene expression Aggrecan” value ([3]; 50 μmol/L) was 81%, the “level of gene expression TIMP-1” value ([4]; 4 hrs, 50 μmol/L) was 110% and the “level of gene expression Collagen II” value [5] was 154%. For the same compound, the “level of gene expression MMP-9” value [6] was 114% and the “level of gene expression ADAMTS-4” value [7] was 101%.

For `C=CCc1ccc(O)c(-c2ccc(O)c(CC=C)c2)c1` [HO, 3′,5-Diallyl-2,4′-biphenyldiol], the IC50 [1, 19] was 4.58 µM, the IC50 ([8]; LPS 1 μg/ml, 24 hours, RAW264.7) was 2.05 µM and the “Expression level (%) I-κBalpha” value [9] was 96%. For the same compound, the “Expression level (%) IL-10” value [10] was 94%, the “Expression level (%) IL-1alpha” value [11] was 68% and the “Expression level (%) TNF-alpha” value [12] was 81%. For the same compound, the “Expression level (%) Collagen I” value [2] was 100%, the “Expression level (%) SOX-6” value [13] was 130% and the “Expression level (%) SOX-9” value [14] was 124%. For the same compound, the “Expression level (%) TIMP-1” value [4] was 106%, the “Expression level (%) IL-RI (Receptor for Il-1)” value [15] was 89% and the “cartilage build-up effect (in words)” value [16] was “favors cartilage build-up”.

In the case of `C=CCc1ccc(O)c(-c2cc(CC=C)ccc2O)c1` [MA, 5,5′-Diallyl-2,2′-biphenyldiol], the IC50 [1, 19] is reported as 8.91 µM, the IC50 ([8]; RAW264.7, 24 h) is reported as 5.09 µM and the “Expression level (%) I-κBalpha” value [9] is reported as 99%. For the same compound, the “Expression level (%) IL-10” value [10] was 136%, the “Expression level (%) IL-1alpha” value [11] was 70% and the “Expression level (%) TNF-alpha” value [12] was 96%. The “Expression level (%) Collagen I” value [2] was 78%, the “Expression level (%) SOX-6” value [13] was 94% and the “Expression level (%) SOX-9” value [14] was 110%. The “Expression level (%) TIMP-1” value [4] was 96%, the “Expression level (%) IL-RI (Receptor for Il-1)” value [15] was 98% and the “cartilage build-up effect (in words)” value [16] was “to lesser extent”.

With Chondroitin sulfate the “IC50 Nitric Oxide” value ([1]; single substance, LPS-stimulated RAW264.7) was greater than 50 mg/L, the “anti-inflammatory activity (in words)” value ([1]; single substance) was “marginal anti-inflammatory” and the “level of gene expression ADAMTS-5” value [17] was 107%. The “level of gene expression Aggrecan” value ([3]; stim., 500 mg/L) was 62%, the “level of gene expression SOX-9” value ([14]; 500 mg/L, % of unstimulated cells) was 147% and the “level of gene expression TIMP-1” value ([4]; unstim., 4 d, 500 mg/L) was 106%. The “level of gene expression MMP-2” value [18] was 93%.
